{
  "source": "patent US8592581B2",
  "about": "“Trisubstituted purine derivatives” (Cyclacel Limited, priority 2007, dated 2013)",
  "test_system": "Mcl-1",
  "assay": "Mcl-1 downregulation in H460 cells by Western blotting",
  "format": "cell-based",
  "conditions": "H460 cells, 24 hours, top concentration close to IC50",
  "description": "The media was removed and the adherent cells washed with 5 ml PBS. […] Proteins were transferred to nitrocellulose membranes (Schleicher & Schuell, Dassel, Germany) using wet electrophoretic transfer. Membranes were stained with Ponceau S to confirm equal loading before blocking in 5% nonfat milk in PBS with 0.05% Tween 20 (PBSTM) for 2 hours. Membranes were incubated overnight at 4° C. with primary antibody (rabbit polyclonal antibody to Mcl-1, Santa Cruz), diluted 1:1000 in PBSTM. Membranes were washed 2×5 minute followed by 2×10 minute in PBS and 0.05% Tween 20 (PBST) and incubated for 1 hour in PBSTM containing horseradish peroxidase-conjugated secondary antibody. Membranes were washed as before and incubated with enhanced chemiluminescence solution (Amersham) and exposed to X-ray film (Amersham).\nIn a second experiment the effect of additional compounds on Mcl-1 levels was investigated.",
  "data": [
    {"smiles": "CC[C@H](CO)Nc1nc(NCc2ccccc2)c2ncn(C(C)C)c2n1", "note": "[Seliciclib, seliciclib, reference compound]", "values": [
      {"measurement": "changes in Mcl-1 levels (in words)", "value": "very modest changes"}
    ]}
  ]
}
